`CN1C(=O)C(Cc2ccccc2)N(C)C(=O)C1=Cc1c(C#N)ccc(F)c1F` (stereo not shown) [Example 15, 2-[5-Benzyl-1,4-dimethyl-3,6-dioxopiperazin-2-ylidenemethyl]-3,4-difluoro-benzonitrile]: the melting point (in general, the temperature, or range, at which the solid turns liquid) worked out at 175 °C.

Source of the values: patent US20100190794A1, “Herbicidally Active Composition” (BASF SE, priority 2007, published 2010).
